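48-hour exposure; five concentrations; linearly interpolated endpoints. GI50: concentration for 50% inhibition of growth.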 Calls of active or inactive are those of the source. No stated cut-off is given here; in the data, active = GI50 up to about 1.1 µM and inactive = higher.
What was measured:
Assay in all cases: DTP human tumour cell line panel, 48 h
[1] = system: 786-0
[2] = system: PC-3
[3] = system: CCRF-CEM
[4] = system: OVCAR-3
[5] = system: MDA-MB-231
[6] = system: UO-31
[7] = system: HT-29
[8] = system: KM12
[9] = system: SK-MEL-5
[10] = system: RXF 393
[11] = system: UACC-62
[12] = system: SF-268
[13] = system: SF-295
[14] = system: LOX IMVI
[15] = system: OVCAR-4
[16] = system: RPMI-8226
[17] = system: TK-10
[18] = system: OVCAR-8
[19] = system: SK-MEL-2
[20] = system: HCC 2998

Row | SMILES | GI50 [1] | GI50 [2] | GI50 [3] | GI50 [4] | GI50 [5] | GI50 [6] | GI50 [7] | GI50 [8] | GI50 [9] | GI50 [10] | GI50 [11] | GI50 [12] | GI50 [13] | GI50 [14] | GI50 [15] | GI50 [16] | GI50 [17] | GI50 [18] | GI50 [19] | GI50 [20]
1 | Cc1c(CCN2CCOCC2)c(N2CCOCC2)n2c(nc3ccccc32)c1C#N | 8.95 µM (inactive) | > 10 µM (inactive) | > 10 µM (inactive) | > 10 µM (inactive) | > 10 µM (inactive) | > 10 µM (inactive) | > 10 µM (inactive) | > 10 µM (inactive) | > 10 µM (inactive) | > 10 µM (inactive) | > 10 µM (inactive) | > 10 µM (inactive) | > 10 µM (inactive) | > 10 µM (inactive) | > 10 µM (inactive) | > 10 µM (inactive) | > 10 µM (inactive) | > 10 µM (inactive) | – | –
2 | S=C1CCSc2c(ccc3ccccc23)N1 | > 100 µM (inactive) | 41 µM (inactive) | > 100 µM (inactive) | > 100 µM (inactive) | > 100 µM (inactive) | > 100 µM (inactive) | > 100 µM (inactive) | > 100 µM (inactive) | > 100 µM (inactive) | 0.512 µM (active) | 93.8 µM (inactive) | 58.6 µM (inactive) | 45.8 µM (inactive) | > 100 µM (inactive) | 46.7 µM (inactive) | – | > 100 µM (inactive) | > 100 µM (inactive) | – | –
3 | COc1ccc(-c2cc(=O)c3c(OC)c(OC)c(OC)c(OC)c3o2)cc1OC [NOBILETIN] | 49.9 µM (inactive) | – | 65.6 µM (inactive) | 24.7 µM (inactive) | 34.5 µM (inactive) | 24.7 µM (inactive) | 32.1 µM (inactive) | – | 18.6 µM (inactive) | 61.5 µM (inactive) | 25.6 µM (inactive) | 66.8 µM (inactive) | 32.5 µM (inactive) | 30.1 µM (inactive) | 28 µM (inactive) | 39.8 µM (inactive) | 50.1 µM (inactive) | 29.6 µM (inactive) | 49.4 µM (inactive) | 32.7 µM (inactive)
4 | COc1ccccc1/C=C1\CCC(CCN(C)C)(C2=CCCC2)C1=O (centres undefined) | 14.4 µM (inactive) | – | 16.5 µM (inactive) | 16.9 µM (inactive) | – | 17.6 µM (inactive) | 15.3 µM (inactive) | 18.2 µM (inactive) | 13.8 µM (inactive) | 12.8 µM (inactive) | 11.2 µM (inactive) | 19.4 µM (inactive) | 17.3 µM (inactive) | 17.1 µM (inactive) | 17.7 µM (inactive) | 17.8 µM (inactive) | 18.5 µM (inactive) | 17.5 µM (inactive) | 19.5 µM (inactive) | 18 µM (inactive)
5 | COc1cc(C2SCC(=O)N2NC(=O)c2ccc(NC(C)=O)cc2OC)ccc1O (centres undefined) | 31.3 µM (inactive) | 37.4 µM (inactive) | > 100 µM (inactive) | > 100 µM (inactive) | – | > 100 µM (inactive) | > 100 µM (inactive) | – | – | 39.3 µM (inactive) | > 100 µM (inactive) | 23.7 µM (inactive) | 20.5 µM (inactive) | > 100 µM (inactive) | > 100 µM (inactive) | 0.883 µM (active) | – | 25.2 µM (inactive) | 22.2 µM (inactive) | –
6 | COC(=O)CC(C(C(=O)OC)C(=O)OC)N1C(=O)OCC1c1ccccc1 (centres undefined) | > 100 µM (inactive) | – | > 100 µM (inactive) | > 100 µM (inactive) | – | > 100 µM (inactive) | > 100 µM (inactive) | > 100 µM (inactive) | > 100 µM (inactive) | > 100 µM (inactive) | > 100 µM (inactive) | > 100 µM (inactive) | > 100 µM (inactive) | > 100 µM (inactive) | > 100 µM (inactive) | 58.6 µM (inactive) | > 100 µM (inactive) | > 100 µM (inactive) | > 100 µM (inactive) | 28.5 µM (inactive)
7 | C=C(CN(C)C)C(=O)c1ccccc1C | 16.9 µM (inactive) | – | 7.85 µM (inactive) | 33.1 µM (inactive) | – | 37.4 µM (inactive) | > 100 µM (inactive) | > 100 µM (inactive) | > 86.5 µM (inactive) | 12.9 µM (inactive) | 28.2 µM (inactive) | 77.1 µM (inactive) | > 100 µM (inactive) | > 69.5 µM (inactive) | > 57.9 µM (inactive) | 15.7 µM (inactive) | > 74.6 µM (inactive) | > 100 µM (inactive) | > 100 µM (inactive) | > 100 µM (inactive)
8 | COc1ccccc1CNC1=Nc2ccncc2S(=O)(=O)N1c1ccccc1 | > 100 µM (inactive) | 31 µM (inactive) | 95.5 µM (inactive) | > 100 µM (inactive) | – | > 100 µM (inactive) | > 100 µM (inactive) | 56.6 µM (inactive) | 34 µM (inactive) | 2.47 µM (inactive) | 35.9 µM (inactive) | – | 41.1 µM (inactive) | > 100 µM (inactive) | > 100 µM (inactive) | 60.5 µM (inactive) | > 100 µM (inactive) | 84.7 µM (inactive) | – | > 100 µM (inactive)

Reference: ChEMBL document CHEMBL1201862, “PubChem BioAssay data set” (2004)
